Counter-ions that a name gives are not always drawn.
SMILES	melting point [°C]
CCOP(=O)(CCc1cc(OCc2ccc(OCc3nc(-c4ccco4)oc3C)c(OC)c2)nn1-c1ccccc1)OCC	76 to 77
CCOc1cc(COc2nn(-c3ccccc3)cc2/C=C/P(=O)(OCC)OCC)ccc1OCc1nc(-c2ccco2)oc1C	117 to 118
CCOP(=O)(/C=C/c1cn(-c2ccccc2)nc1OCc1ccc(OCc2nc(-c3ccco3)oc2C)c(C(=O)OC)c1)OCC	92 to 93
CCOP(=O)(/C=C/c1cn(CC)nc1OCc1ccc(OCc2nc(-c3ccco3)oc2C)c(OC)c1)OCC	82 to 84
CCOP(=O)(/C=C/C=C/c1cn(-c2ccccc2)nc1OCc1ccc(OCc2nc(-c3ccco3)oc2C)c(OC)c1)OCC	143 to 144
CCOP(=O)(/C=C/c1cn(-c2ccccc2)nc1OCc1ccc(OCc2nc(-c3ccc(C(N)=O)cc3)oc2C)c(OC)c1)OCC	146 to 148
CCOP(=O)(/C=C/c1cn(-c2ccccc2)nc1OCc1ccc(OCc2nc(-c3cccc(O)c3)oc2C)c(OC)c1)OCC	127 to 128
CCOP(=O)(/C=C/c1cn(-c2ccccc2)nc1OCc1ccc(OCc2nc(-c3ccc(OC)c(C(=O)OC)c3)oc2C)c(OC)c1)OCC	144 to 145
CCOP(=O)(/C=C\c1cnc(-c2ccccc2)nc1OCc1ccc(OCc2nc(-c3ccco3)oc2C)c(OC)c1)OCC	154 to 155
CCOP(=O)(/C=C/c1cn(-c2ccccc2)nc1OCc1ccc(OCc2nc(-c3ccc(C)c(C(=O)O)c3)oc2CC)c(OC)c1)OCC	165 to 166
CCOP(=O)(/C=C/c1cn(-c2ccccc2)nc1OCc1ccc(OCc2nc(-c3ccc(C(=O)O)s3)oc2C)c(OC)c1)OCC	165 to 166
CCOP(=O)(/C=C\c1cn(-c2ccccc2)nc1OCc1ccc(OCc2nc(-c3cccc(C(=O)OC)c3)oc2C)c(OC)c1)OCC	112 to 113
CCOP(=O)(/C=C\c1cn(-c2ccccc2)nc1OCc1ccc(OCc2nc(-c3cccc(C(=O)O)c3)oc2C)c(OC)c1)OCC	158 to 159
CCOP(=O)(/C=C/c1cn(-c2ccccc2)nc1OCc1ccc(OCc2nc(-c3ccc(CC(=O)[O-])cc3)oc2C)c(OC)c1)OCC.[Na+]	109 to 110
COc1cc(COc2nn(-c3ccccc3)cc2C(C[N+](=O)[O-])C[N+](=O)[O-])ccc1OCc1nc(-c2ccco2)oc1C	126 to 127
COc1cc(COc2nn(-c3ccccc3)cc2C=O)ccc1OCc1nc(-c2cccc(OS(C)(=O)=O)c2)oc1C (as salt: methanesulfonate) [Example 228, 3-{4-[(4-{[(4-formyl-1-phenyl-1H-pyrazol-3-yl)oxy]methyl}-2-methoxyphenoxy)methyl]-5-methyl-1,3-oxazol-2-yl}phenyl methanesulfonate]	146 to 148

SMILES	melting point [°C]
CCOC(=O)c1cn(Cc2ccccc2)nc1OCc1ccc(OCc2nc(-c3ccccc3)oc2C)c(OC)c1 [Example 1, ethyl 1-benzyl-3-({3-methoxy-4-[(5-methyl-2-phenyl-1,3-oxazol-4-yl)methoxy]benzyl}oxy)-1H-pyrazole-4-carboxylate]	154 to 155
COc1cc(COc2nn(Cc3ccccc3)cc2C(=O)O)ccc1OCc1nc(-c2ccccc2)oc1C [Example 2, 1-benzyl-3-({3-methoxy-4-[(5-methyl-2-phenyl-1,3-oxazol-4-yl)methoxy]benzyl}oxy)-1H-pyrazole-4-carboxylic acid]	162 to 163
COc1cc(COc2nn(Cc3ccccc3)cc2C(N)=O)ccc1OCc1nc(-c2ccccc2)oc1C [Example 3, 1-benzyl-3-({3-methoxy-4-[(5-methyl-2-phenyl-1,3-oxazol-4-yl)methoxy]benzyl}oxy)-1H-pyrazole-4-carboxamide]	164 to 165
COc1cc(COc2nn(Cc3ccccc3)cc2CO)ccc1OCc1nc(-c2ccccc2)oc1C [Example 4, [1-benzyl-3-({3-methoxy-4-[(5-methyl-2-phenyl-1,3-oxazol-4-yl)methoxy]benzyl}oxy)-1H-pyrazol-4-yl]methanol]	90 to 91
COc1cc(COc2nn(Cc3ccccc3)cc2C=O)ccc1OCc1nc(-c2ccccc2)oc1C [Example 5, 1-benzyl-3-({3-methoxy-4-[(5-methyl-2-phenyl-1,3-oxazol-4-yl)methoxy]benzyl}oxy)-1H-pyrazole-4-carbaldehyde]	151 to 152
CCOC(=O)c1cn(Cc2ccccc2)nc1OCc1ccc(OCc2nc(-c3ccco3)oc2C)cc1 [Example 6, ethyl 1-benzyl-3-[(4-{[2-(2-furyl)-5-methyl-1,3-oxazol-4-yl]methoxy}benzyl)oxy]-1H-pyrazole-4-carboxylate]	101 to 102
Cc1oc(-c2ccco2)nc1COc1ccc(COc2nn(Cc3ccccc3)cc2C(=O)O)cc1 [Example 7, 1-benzyl-3-[(4{[2-(2-furyl)-5-methyl-1,3-oxazol-4-yl]methoxy}benzyl)oxy]-1H-pyrazole-4-carboxylic acid]	170 to 171
Cc1oc(-c2ccco2)nc1COc1ccc(COc2nn(Cc3ccccc3)cc2C(N)=O)cc1 [Example 8, 1-benzyl-3-[(4{[2-(2-furyl)-5-methyl-1,3-oxazol-4-yl]methoxy}benzyl)oxy]-1H-pyrazole-4-carboxamide]	139 to 140
CC(=O)NC(=O)c1cn(Cc2ccccc2)nc1OCc1ccc(OCc2nc(-c3ccco3)oc2C)cc1 [Example 9, N-acetyl-1-benzyl-3-[(4{[2-(2-furyl)-5-methyl-1,3-oxazol-4-yl]methoxy}benzyl)oxy]-1H-pyrazole-4-carboxamide]	193 to 194
Cc1oc(-c2ccco2)nc1COc1ccc(COc2nn(Cc3ccccc3)cc2C=O)cc1 [Example 11, 1-benzyl-3-[(4{[2-(2-furyl)-5-methyl-1,3-oxazol-4-yl]methoxy}benzyl)oxy]-1H-pyrazole-4-carbaldehyde]	118 to 119
CCOC(=O)c1cn(Cc2ccccc2)nc1OCc1ccc(OCc2nc(-c3ccco3)oc2C)c(OC)c1 [Example 12, ethyl 1-benzyl-3-[(4-{[2-(2-furyl)-5-methyl-1,3-oxazol-4-yl]methoxy}-3-methoxybenzyl)oxy]-1H-pyrazole-4-carboxylate]	117 to 118
COc1cc(COc2nn(Cc3ccccc3)cc2C(=O)O)ccc1OCc1nc(-c2ccco2)oc1C [Example 13, 1-benzyl-3-[(4-{[2-(2-furyl)-5-methyl-1,3-oxazol-4-yl]methoxy}-3-methoxybenzyl)oxy]-1H-pyrazole-4-carboxylic acid]	167 to 168
COc1cc(COc2nn(Cc3ccccc3)cc2C(N)=O)ccc1OCc1nc(-c2ccco2)oc1C [Example 14, 1-benzyl-3-[(4-{[2-(2-furyl)-5-methyl-1,3-oxazol-4-yl]methoxy}-3-methoxybenzyl)oxy]-1H-pyrazole-4-carboxamide]	160 to 161
COc1cc(COc2nn(Cc3ccccc3)cc2CO)ccc1OCc1nc(-c2ccco2)oc1C [Example 15, (1-benzyl-3-[(4-{[2-(2-furyl)-5-methyl-1,3-oxazol-4-yl]methoxy)-3-methoxybenzyl)oxy]-1H-pyrazol-4-yl}methanol]	104 to 105
COc1cc(COc2nn(Cc3ccccc3)cc2C=O)ccc1OCc1nc(-c2ccco2)oc1C [Example 16, 1-benzyl-3-[(4-{[2-(2-furyl)-5-methyl-1,3-oxazol-4-yl]methoxy}-3-methoxybenzyl)oxy]-1H-pyrazole-4-carbaldehyde]	139 to 140
